Here are results for 55 compounds from US10124004B2, “Pyrido[3,4-d]pyrimidine derivative and pharmaceutically acceptable salt thereof” (Teijin Pharma Limited, priority 2015, dated 2018).

T1 sequence (P11802 whole entry): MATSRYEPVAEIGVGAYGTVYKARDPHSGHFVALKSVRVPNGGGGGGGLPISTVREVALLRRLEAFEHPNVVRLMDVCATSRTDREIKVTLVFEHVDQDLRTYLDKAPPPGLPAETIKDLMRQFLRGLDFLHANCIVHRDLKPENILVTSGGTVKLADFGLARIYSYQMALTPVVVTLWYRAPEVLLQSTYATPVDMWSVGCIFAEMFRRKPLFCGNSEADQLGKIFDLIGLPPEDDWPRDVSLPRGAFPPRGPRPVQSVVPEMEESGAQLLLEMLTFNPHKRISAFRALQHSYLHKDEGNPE
T1 sequence (P30281 whole entry partner): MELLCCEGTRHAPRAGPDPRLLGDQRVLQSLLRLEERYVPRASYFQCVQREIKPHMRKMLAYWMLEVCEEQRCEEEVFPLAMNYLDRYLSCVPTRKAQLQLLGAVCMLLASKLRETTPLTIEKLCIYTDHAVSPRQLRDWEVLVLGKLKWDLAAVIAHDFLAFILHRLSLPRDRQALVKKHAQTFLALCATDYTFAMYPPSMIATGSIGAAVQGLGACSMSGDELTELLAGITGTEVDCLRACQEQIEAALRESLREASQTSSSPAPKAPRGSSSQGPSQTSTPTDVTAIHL

The first assay addresses T1, CDK4/cyclin D3 (Homo sapiens, UniProt P11802).
T1 construct: purchased Carna Biosciences, Inc. QS S Assist CDK4/Cyclin D3_FP Kit
Briefly: Human CDK4/cyclin D3 inhibitory activity (QS S Assist CDK4/Cyclin D3_FP Kit, IMAP fluorescence polarization). In kind it is biochemical. The following applies: 50% inhibitory concentration against CDK4/cyclin D3, given as class symbol. As to the method:
Human CDK4/Cyclin D3 Inhibitory Activity
Each compound was analyzed for CDK4/cyclin D3 inhibitory activity with an assay kit (QS S Assist CDK4/Cyclin D3_FP Kit, available from Carna Biosciences, Inc.). This assay kit determines kinase activity on the basis of the IMAP technology by Molecular Devices. Specifically, the kinase activity is determined through quantification of a variation in fluorescent polarization caused by binding of a kinase-phosphorylated fluorescent substance to an IMAP-binding reagent.
Each solution was prepared with the 10× assay buffer attached to the kit or a separately prepared assay buffer having the same composition as the assay buffer attached to the kit. An assay buffer was prepared by 10-fold dilution of the 10× assay buffer with distilled water. The assay buffer contains 20 mM HEPES (pH 7.4), 0.01% Tween20, and 2 mM dithiothreitol. A test compound solution was prepared by dilution of the test compound with dimethyl sulfoxide (DMSO) to a concentration 100 times higher than the final concentration and then 25-fold dilution with the assay buffer to a concentration four times higher than the final concentration. An ATP/substrate/Metal solution was prepared by five-fold dilution of the 5×ATP/substrate/Metal solution attached to the kit with the assay buffer. An enzyme solution was prepared by dilution of the CDK4/cyclin D3 attached to the kit with the assay buffer to a concentration twice higher than the final concentration (final concentration of CDK4/cyclin D3:12.5 to 25 ng/well). A detection reagent was prepared by five-fold dilution of each of 5× IMAP-binding buffer A and 5×IMAP-binding buffer B with distilled water, mixing of IMAP-binding buffer A with IMAP-binding buffer B at a ratio of 85:15, and 400-fold dilution of the IMAP-binding reagent with the mixed buffer.
The test compound solution (5 μL/well) and the ATP/substrate/Metal solution (5 μL/well) were added to a 384-well plate, and the enzyme solution or the assay buffer (10 μL/well) was added to the plate (total amount of the reaction mixture: 20 μL/well) for initiation of enzymatic reaction. […] The reaction was performed at room temperature for 45 minutes, and the detection reagent (60 μL/well) was then added to the plate, followed by further reaction for 30 minutes at room temperature under light shielding conditions. Subsequently, fluorescent polarization was determined with a microplate reader at an excitation wavelength of 485 nm and an emission wavelength of 535 nm.
The percent inhibition of enzyme activity was calculated for each test compound (note: enzyme activity=100% in the case of addition of the enzyme solution and addition of DMSO instead of the test compound solution, whereas enzyme activity=0% in the case of addition of the assay buffer instead of the enzyme solution, and addition of DMSO instead of the test compound solution). The percent inhibition of enzyme activity was fitted to a dose-response curve, to determine a 50% inhibitory concentration against CDK4/cyclin D3.
In each table, “+++” corresponds to IC50<10 nM, “++” 10 nM≤IC50<100 nM, and “+” 100 nM≤IC50.
`CC(C)Nc1nc([C@@H](C)O)cc2cnc(Nc3ccc(N4CCC(C)(CO)CC4)nn3)nc12` [Compound 688] had an IC50 of less than 0.01 µM.

Still in this assay, the particulars now being: Human CDK4/cyclin D3 inhibitory activity; read-out: CDK4 Activity symbol.
Consider `CO[C@H](C)c1cc2cnc(Nc3ccc(N4CCCN(C)CC4)nn3)nc2c(NC(C)C)n1` [Compound 488], for which the IC50 was less than 0.01 µM.
Turning to `CO[C@H](C)c1cc2cnc(Nc3ccc(OCC4(N)CCC4)cn3)nc2c(NC(C)C)n1` [Compound 505], the IC50 lay in the range of 0.01 to 0.1 µM.
Still for that read-out and setting: for `CC(C)Nc1nc(C(C)O)cc2cnc(Nc3ccc(CN4CCNC5(CC5)C4)cn3)nc12` (stereo not shown) [Compound 516] the value was 0.01 to 0.1 µM.
On to `CNC(=O)CNc1ccc(Nc2ncc3cc([C@@H](C)O)nc(NC(C)C)c3n2)nc1` [Compound 539], for which the IC50 fell in the range of 0.01 to 0.1 µM.
In the case of `O[C@H]1CC[C@@H](Nc2nc(C(F)F)cc3cnc(Nc4ccc(CN5CCNCC5)cn4)nc23)CC1` [Compound 424], the IC50 was less than 0.01 µM.
Same read-out and setting: with `COC(C)c1cc2cnc(Nc3ccc(CN4CCNCC4)cn3)nc2c(NC2CC3(C2)CC(C(=O)O)C3)n1` (stereo not shown) [Compound 513] the figure was 0.01 to 0.1 µM; with `COC(C)c1cc2cnc(Nc3ccc(CN4CCNCC4)cn3)nc2c(Nc2ccc(F)cc2)n1` (stereo not shown) [Compound 446], 0.01 to 0.1 µM; with `CO[C@H](C)c1cc2cnc(Nc3ccc(OCC(F)CN(C)C)cn3)nc2c(NC(C)C)n1` (stereo partly shown) [Compound 487], less than 0.01 µM.
On the same count and under the same terms, for `CO[C@H](C)c1cc2cnc(Nc3ccc(N4CCC5(CC4)COC5)cn3)nc2c(NC(C)C)n1` [Compound 481] the value was 0.01 to 0.1 µM; for `CC(C)Nc1nc([C@@H](C)O)cc2cnc(Nc3ccc(O[C@H]4CNC[C@@H]4F)nn3)nc12` [Compound 545], less than 0.01 µM; for `CC(C)Nc1nc([C@@H](C)O)cc2cnc(Nc3ccc(CC(=O)N4CCN(CCO)CC4)cn3)nc12` [Compound 616], less than 0.01 µM.
With `CC1(C)NCCN(c2ccc(Nc3ncc4cc(C(F)F)nc(N[C@H]5CC[C@H](O)CC5)c4n3)nc2)C1=O` [Compound 443], the IC50 is 0.01 to 0.1 µM.
Same read-out and setting: with `COC(C)c1cc2cnc(Nc3ccc(CN4CCNCC4)cn3)nc2c(NCCC2CCCCO2)n1` (stereo not shown) [Compound 430] the figure was less than 0.01 µM.
As for `CO[C@H](C)c1cc2cnc(Nc3ccc(OC4CC5CCC(C4)N5)cn3)nc2c(NC(C)C)n1` (stereo partly shown) [Compound 504], the IC50 was less than 0.01 µM.
As to `CO[C@H](C)c1cc2cnc(Nc3ccc(N4CCNCC(C)(C)C4=O)cn3)nc2c(NC(C)C)n1` [Compound 542], the IC50 lay within 0.01 to 0.1 µM.
On the same count and under the same terms, with `COC(C)c1cc2cnc(Nc3ccc(CN4CCNCC4)cn3)nc2c(Nc2cccc(F)c2)n1` (stereo not shown) [Compound 447] the figure was 0.01 to 0.1 µM.
For the compound `CO[C@H](C)c1cc2cnc(Nc3ccc(N4CCNCC4)nn3)nc2c(NC2CCS(=O)(=O)CC2)n1` [Compound 359], the IC50 lay in the range of 0.01 to 0.1 µM.
`CO[C@H](C)c1cc2cnc(Nc3ccc(N4CC5(CCCN5)C4)cn3)nc2c(NC(C)C)n1` [Compound 486]: the IC50 was less than 0.01 µM.
On to `CO[C@H](C)c1cc2cnc(Nc3ccc(N4CCN(C(C)(C)C)CC4)nn3)nc2c(NC(C)C)n1` [Compound 599], for which the IC50 was in the range of 0.01 to 0.1 µM.
In the case of `CC(C)Nc1nc([C@@H](C)O)cc2cnc(Nc3ccc(O[C@H]4CNCC[C@@H]4F)nn3)nc12` [Compound 547], the IC50 was less than 0.01 µM.
Regarding `COC(C)c1cc2cnc(Nc3ccc(CN4CCNCC4)cn3)nc2c(NCC(C)(C)C)n1` (stereo not shown) [Compound 418], the IC50 was less than 0.01 µM.
Still for that read-out and setting: with `CCC(C)Nc1nc(C(C)OC)cc2cnc(Nc3ccc(CN4CCNCC4)cn3)nc12` (stereo not shown) [Compound 423] the figure was less than 0.01 µM; with `COC(C)c1cc2cnc(Nc3ccc(O[C@H]4CCNC[C@H]4F)cn3)nc2c(NC(C)C)n1` (relative stereo) [Compound 460], less than 0.01 µM; with `CC(C)Nc1nc([C@@H](C)O)cc2cnc(Nc3ccc(O[C@H]4CCNC[C@@H]4F)nn3)nc12` [Compound 563], less than 0.01 µM.
Take `COC(C)c1cc2cnc(Nc3ccc(CN4CCNCC4)cn3)nc2c(NC2CCCN(C)C2)n1` (stereo not shown) [Compound 407]: the IC50 is 0.01 to 0.1 µM.
As to `CO[C@H](C)c1cc2cnc(Nc3ccc(N4CCNCC4=O)nn3)nc2c(NC(C)C)n1` [Compound 356], the IC50 was 0.01 to 0.1 µM.
Same read-out and setting: for `COC(C)c1cc2cnc(Nc3ccc(CN4CCNCC4)cn3)nc2c(NC2CCNC(=O)C2)n1` (stereo not shown) [Compound 422] the value was 0.01 to 0.1 µM; for `CO[C@H](C)c1cc2cnc(Nc3ccc(N4C5CCC4CC(N)C5)cn3)nc2c(NC(C)C)n1` (stereo partly shown) [Compound 502], less than 0.01 µM; for `CC(C)Nc1nc([C@@H](C)O)cc2cnc(Nc3ccc(SCCN(C)C)cn3)nc12` [Compound 580], 0.01 to 0.1 µM.
Same read-out and setting: with `COC(C)c1cc2cnc(Nc3ccc(CN4CCNCC4)cn3)nc2c(NC2CCCC2)n1` (stereo not shown) [Compound 417] the figure was less than 0.01 µM.
On the same count and under the same terms, with `COC(C)c1cc2cnc(Nc3ccc(CN4CCNCC4)cn3)nc2c(NC2CCCCCC2)n1` (stereo not shown) [Compound 445] the figure was less than 0.01 µM; with `COC(C)c1cc2cnc(Nc3ccc(CN4CCNCC4)cn3)nc2c(NC2(CO)CCCC2)n1` (stereo not shown) [Compound 413], less than 0.01 µM; with `COC(C)c1cc2cnc(Nc3ccc(CN4CCNCC4)cn3)nc2c(N[C@H]2CC[C@H](OC(C)C)CC2)n1` (stereo partly shown) [Compound 464], less than 0.01 µM.
Consider `CC(C)Nc1nc([C@@H](C)O)cc2cnc(Nc3ccc(CN4CCNC(C)(C)C4)cn3)nc12` [Compound 536], for which the IC50 was less than 0.01 µM.
In the case of `CO[C@H](C)c1cc2cnc(Nc3ccc(OC4CCNCC4(F)F)cn3)nc2c(NC(C)C)n1` (stereo partly shown) [Compound 473], the IC50 was in the range of 0.01 to 0.1 µM.
`CO[C@H](C)c1cc2cnc(Nc3ccc(N(C)C(=O)C4CCNCC4)cn3)nc2c(NC(C)C)n1` [Compound 377]: the IC50 is 0.01 to 0.1 µM.
Take `COC(C)c1cc2cnc(Nc3ccc(CN4CCNC5(CC5)C4)cn3)nc2c(NC(C)C)n1` (stereo not shown) [Compound 515]: the IC50 fell in the range of 0.01 to 0.1 µM.
With `CO[C@H](C)c1cc2cnc(Nc3ccc(N4CC5(CNC5)C4)cn3)nc2c(NC(C)C)n1` [Compound 476], the IC50 is less than 0.01 µM.
With `CC(C)Nc1nc([C@@H](C)O)cc2cnc(Nc3ccc(N4CCC(O)C(F)(F)C4)nn3)nc12` (stereo partly shown) [Compound 617], the IC50 is less than 0.01 µM.
`COC(C)c1cc2cnc(Nc3ccc(N4CCCNCC4)cn3)nc2c(NC(C)C)n1` (stereo not shown) [Compound 453]: the IC50 was less than 0.01 µM.
Still for that read-out and setting: with `CN(C)CCOc1ccc(Nc2ncc3cc(C(F)F)nc(N[C@H]4CC[C@@H](O)CC4)c3n2)nc1` [Compound 426] the figure was less than 0.01 µM; with `COC(C)c1cc2cnc(Nc3ccc(CN4CCNCC4)cn3)nc2c(NCC(C)C)n1` (stereo not shown) [Compound 392], less than 0.01 µM; with `CO[C@H](C)c1cc2cnc(Nc3ccc(OCCN(C)C)nn3)nc2c(NC(C)C)n1` [Compound 471], 0.01 to 0.1 µM.
For `COC(C)c1cc2cnc(Nc3ccc(CN4CCNCC4)cn3)nc2c(NC2CCCOCC2)n1` (stereo not shown) [Compound 468], the IC50 is less than 0.01 µM.
Still for that read-out and setting: with `CO[C@H](C)c1cc2cnc(Nc3ccc(N4CC5(CC(O)C5)C4)nn3)nc2c(NC(C)C)n1` [Compound 523] the figure was less than 0.01 µM; with `CNC1(COc2ccc(Nc3ncc4cc(C(C)OC)nc(NC(C)C)c4n3)nc2)CC1` (stereo not shown) [Compound 461], 0.01 to 0.1 µM; with `CC(C)Nc1nc([C@@H](C)O)cc2cnc(Nc3ccc(O[C@@H]4CCCNC4)cn3)nc12` [Compound 571], less than 0.01 µM.
`CC(C)Nc1nc(C(C)O)cc2cnc(Nc3ccc(N4CCCC(O)C4)nn3)nc12` (single isomer, unassigned) [Compound 582]: the IC50 is less than 0.01 µM.
The same measure, in the same setting: for `CC(C)Nc1nc([C@@H](C)O)cc2cnc(Nc3ccc(N4CCNC(C)(C)C4=O)cn3)nc12` [Compound 440] the value was 0.01 to 0.1 µM.
For the compound `COC(C)c1cc2cnc(Nc3ccc(CN4CCNCC4)cn3)nc2c(NC2(C)CCOCC2)n1` (stereo not shown) [Compound 420], the IC50 was less than 0.01 µM.
On to `CC(C)Nc1nc([C@@H](C)O)cc2cnc(Nc3ccc(N4CCCC(O)C4)nn3)nc12` (stereo partly shown) [Compound 517], for which the IC50 was less than 0.01 µM.
Regarding `COC(C)c1cc2cnc(Nc3ccc(CN4CCNCC4)cn3)nc2c(NCCN2CCCC2=O)n1` (stereo not shown) [Compound 414], the IC50 lay within 0.01 to 0.1 µM.
On to `CO[C@H](C)c1cc2cnc(Nc3ccc(N4CCNC(=O)C4)nn3)nc2c(NC(C)C)n1` [Compound 362], for which the IC50 was in the range of 0.01 to 0.1 µM.
Consider `CC(C)Nc1nc([C@@H](C)O)cc2cnc(Nc3ccc(N4CCNCC4=O)nn3)nc12` [Compound 613], for which the IC50 was in the range of 0.01 to 0.1 µM.
